“And” between values parts separate entries of the source, which are not always exact repeats. Equal values may be shown once.
Legend:
[1] = species: Rattus norvegicus; type: functional; conditions: dose 10 mg/kg
[2] = species: Rattus norvegicus; type: functional; conditions: dose 10 mg/kg; remark: listed apart in the source
[3] = species: Rattus norvegicus; type: functional; conditions: dose 10 mg/kg; remark: listed apart in the source
[4] = species: Rattus norvegicus; type: functional; conditions: dose 10 mg/kg; remark: listed apart in the source
[5] = species: Rattus norvegicus; type: functional; conditions: dose 10 mg/kg; remark: listed apart in the source
[6] = species: Rattus norvegicus; type: functional; conditions: dose 10 mg/kg; remark: listed apart in the source
[7] = species: Rattus norvegicus; type: functional; conditions: dose 10 mg/kg; remark: listed apart in the source
[8] = species: Rattus norvegicus; conditions: Heart right ventricle
[9] = species: Rattus norvegicus; conditions: Ovarian vein
[10] = species: Rattus norvegicus; conditions: Heart right ventricle; remark: listed apart in the source
[11] = species: Rattus norvegicus; type: functional; conditions: dose 10.2 mg/kg
[12] = species: Rattus norvegicus; type: functional; conditions: dose 10.2 mg/kg; remark: listed apart in the source
[13] = species: Rattus norvegicus; type: functional; conditions: dose 10.2 mg/kg; remark: listed apart in the source
[14] = species: Rattus norvegicus; type: functional; conditions: dose 10.2 mg/kg; remark: listed apart in the source
[15] = species: Rattus norvegicus; type: functional; conditions: dose 10.2 mg/kg; remark: listed apart in the source
[16] = species: Rattus norvegicus; type: functional; conditions: dose 10.2 mg/kg; remark: listed apart in the source
[17] = species: Rattus norvegicus; type: functional; conditions: dose 10.2 mg/kg; remark: listed apart in the source
[18] = species: Rattus norvegicus; conditions: Heart right ventricle; remark: listed apart in the source
[19] = species: Rattus norvegicus; conditions: Heart right ventricle; remark: listed apart in the source
[20] = target: T1, Aromatase (Rattus norvegicus, UniProt P22443)
T1 sequence (P22443 whole entry): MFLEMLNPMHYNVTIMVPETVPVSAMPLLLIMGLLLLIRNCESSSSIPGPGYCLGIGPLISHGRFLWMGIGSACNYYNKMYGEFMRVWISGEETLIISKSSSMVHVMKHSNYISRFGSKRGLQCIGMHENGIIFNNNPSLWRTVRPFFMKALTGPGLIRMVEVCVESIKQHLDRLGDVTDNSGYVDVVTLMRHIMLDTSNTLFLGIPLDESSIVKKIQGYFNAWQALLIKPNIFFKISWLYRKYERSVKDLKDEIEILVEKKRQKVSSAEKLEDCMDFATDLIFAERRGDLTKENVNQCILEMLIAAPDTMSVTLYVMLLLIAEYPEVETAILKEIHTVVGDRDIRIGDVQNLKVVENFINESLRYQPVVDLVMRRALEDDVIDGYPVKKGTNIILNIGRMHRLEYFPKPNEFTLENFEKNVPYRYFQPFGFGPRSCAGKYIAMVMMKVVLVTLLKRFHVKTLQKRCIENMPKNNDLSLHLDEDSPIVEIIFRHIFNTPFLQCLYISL

[21] = species: Rattus norvegicus; conditions: Heart right ventricle; remark: listed apart in the source
[22] = species: Rattus norvegicus; conditions: Heart right ventricle; remark: listed apart in the source
[23] = species: Rattus norvegicus; conditions: Heart right ventricle; remark: listed apart in the source
[24] = species: Rattus norvegicus; conditions: Heart right ventricle; remark: listed apart in the source
[25] = species: Rattus norvegicus; conditions: Heart right ventricle; remark: listed apart in the source
[26] = species: Rattus norvegicus; conditions: Heart right ventricle; remark: listed apart in the source
[27] = species: Rattus norvegicus; conditions: Heart right ventricle; remark: listed apart in the source
[28] = species: Rattus norvegicus; conditions: Heart right ventricle; remark: listed apart in the source
[29] = species: Rattus norvegicus; type: functional; conditions: dose 10.9 mg/kg
[30] = species: Rattus norvegicus; type: functional; conditions: dose 10.9 mg/kg; remark: listed apart in the source
[31] = species: Rattus norvegicus; type: functional; conditions: dose 10.9 mg/kg; remark: listed apart in the source
[32] = species: Rattus norvegicus; type: functional; conditions: dose 10.9 mg/kg; remark: listed apart in the source
[33] = species: Rattus norvegicus; type: functional; conditions: dose 10.9 mg/kg; remark: listed apart in the source
[34] = species: Rattus norvegicus; type: functional; conditions: dose 10.9 mg/kg; remark: listed apart in the source
[35] = species: Rattus norvegicus; type: functional; conditions: dose 10.9 mg/kg; remark: listed apart in the source
[36] = species: Rattus norvegicus; type: functional; conditions: dose 11.4 mg/kg
[37] = species: Rattus norvegicus; type: functional; conditions: dose 11.4 mg/kg; remark: listed apart in the source
[38] = species: Rattus norvegicus; type: functional; conditions: dose 11.4 mg/kg; remark: listed apart in the source
[39] = species: Rattus norvegicus; type: functional; conditions: dose 11.4 mg/kg; remark: listed apart in the source
[40] = species: Rattus norvegicus; type: functional; conditions: dose 11.4 mg/kg; remark: listed apart in the source
[41] = species: Rattus norvegicus; type: functional; conditions: dose 11.4 mg/kg; remark: listed apart in the source
[42] = species: Rattus norvegicus; type: functional
[43] = species: Rattus norvegicus; type: functional; conditions: dose 10.1 mg/kg
[44] = species: Rattus norvegicus; type: functional; conditions: dose 10.1 mg/kg; remark: listed apart in the source
[45] = species: Rattus norvegicus; type: functional; conditions: dose 10.1 mg/kg; remark: listed apart in the source
[46] = species: Rattus norvegicus; type: functional; conditions: dose 10.1 mg/kg; remark: listed apart in the source
[47] = species: Rattus norvegicus; type: functional; conditions: dose 10.1 mg/kg; remark: listed apart in the source
[48] = species: Rattus norvegicus; type: functional; conditions: dose 10.1 mg/kg; remark: listed apart in the source
[49] = species: Rattus norvegicus; type: functional; conditions: dose 20 mg/kg
[50] = species: Rattus norvegicus; type: functional; conditions: dose 20 mg/kg; remark: listed apart in the source
[51] = species: Rattus norvegicus; type: functional; conditions: dose 20 mg/kg; remark: listed apart in the source
[52] = species: Rattus norvegicus; type: functional; conditions: dose 20 mg/kg; remark: listed apart in the source
[53] = species: Rattus norvegicus; type: functional; conditions: dose 20 mg/kg; remark: listed apart in the source
[54] = species: Rattus norvegicus; type: functional; conditions: dose 20 mg/kg; remark: listed apart in the source
[55] = species: Rattus norvegicus; type: functional; conditions: dose 20 mg/kg; remark: listed apart in the source
[56] = species: Rattus norvegicus; conditions: Heart right ventricle; remark: listed apart in the source
[57] = species: Rattus norvegicus; type: functional; conditions: dose 11.5 mg/kg
[58] = species: Rattus norvegicus; type: functional; conditions: dose 11.5 mg/kg; remark: listed apart in the source
[59] = species: Rattus norvegicus; type: functional; conditions: dose 11.5 mg/kg; remark: listed apart in the source
[60] = species: Rattus norvegicus; type: functional; conditions: dose 11.5 mg/kg; remark: listed apart in the source
[61] = species: Rattus norvegicus; type: functional; conditions: dose 11.5 mg/kg; remark: listed apart in the source
[62] = species: Rattus norvegicus; type: functional; conditions: dose 11.5 mg/kg; remark: listed apart in the source
[63] = species: Rattus norvegicus; type: functional; conditions: dose 11.5 mg/kg; remark: listed apart in the source

CCC(=O)O[C@H]1CC[C@H]2[C@@H]3CCC4=CC(=O)CC[C@]4(C)[C@H]3CC[C@]12C.CCC1(c2ccc(N)cc2)CCC(=O)NC1=O
Tumors with CR [1]: 6% | Tumors with CR [2]: 54% | Tumors with CR [3]: 17% | Change of tumor area [4]: 4% | Tumors with CR [5]: 23% | No. of tumors [6]: 35 | No. of tumors [7]: 7

O=C1/C(=C/c2ccncc2)CCc2c(O)cccc21
Plasma-E2 concentration [8]: 524 pg/mL | Plasma-E2 concentration [9]: 4040 pg/mL

O=C1c2ccccc2CCC1Cc1ccncc1 (configuration not stated)
Plasma-E2 concentration [9]: 3700 pg/mL | Plasma-E2 concentration [10]: 717 pg/mL

CCC(=O)O[C@H]1CC[C@H]2[C@@H]3CCC4=CC(=O)CC[C@]4(C)[C@H]3CC[C@]12C.O=C1c2ccccc2CCC1Cc1ccncc1
Tumors with CR [11]: 32% | Tumors with CR [12]: 10% | Change of tumor area [13]: 41% | No. of tumors [14]: 31 | Tumors with CR [15]: 13% | Tumors with CR [16]: 45% | No. of tumors [17]: 8

COc1cccc2c1CCC(Cc1ccncc1)C2=O (configuration not stated)
Plasma-E2 concentration [18]: 1460 pg/mL and 902 pg/mL | Plasma-E2 concentration [19]: 458 pg/mL | Plasma-E2 concentration [8]: 542 pg/mL | IC50 [20]: 8 µM | Plasma-E2 concentration [9]: 3950 pg/mL | Plasma-E2 concentration [21]: 1250 pg/mL | Plasma-E2 concentration [22]: 894 pg/mL | Plasma-E2 concentration [23]: 576 pg/mL | Plasma-E2 concentration [24]: 990 pg/mL | Plasma-E2 concentration [25]: 639 pg/mL | Plasma-E2 concentration [26]: 851 pg/mL | Plasma-E2 concentration [27]: 1040 pg/mL | Plasma-E2 concentration [28]: 882 pg/mL

O=C1c2cccc(O)c2CCC1Cc1ccncc1 (stereo in doubt; 12)
Plasma-E2 concentration [8]: 472 pg/mL | IC50 [20]: 2 µM | Plasma-E2 concentration [9]: 3700 pg/mL

CCC(=O)O[C@H]1CC[C@H]2[C@@H]3CCC4=CC(=O)CC[C@]4(C)[C@H]3CC[C@]12C.O=C1c2cccc(O)c2CCC1Cc1ccncc1
Tumors with CR [29]: 6% | No. of tumors [30]: 3 | Tumors with CR [31]: 45% | No. of tumors [32]: 33 | Tumors with CR [33]: 27% | Change of tumor area [34]: 61% | Tumors with CR [35]: 21%

CCC(=O)O[C@H]1CC[C@H]2[C@@H]3CCC4=CC(=O)CC[C@]4(C)[C@H]3CC[C@]12C.COc1cccc2c1CC/C(=C\c1ccncc1)C2=O
No. of tumors [36]: 9 | Change of tumor area [37]: 115% | No. of tumors [38]: 28 | Tumors with CR [39]: 11% | Tumors with CR [40]: 50% | Tumors with CR [41]: 29% | Tumors with CR [42]: 11%

CCC(=O)O[C@H]1CC[C@H]2[C@@H]3CCC4=CC(=O)CC[C@]4(C)[C@H]3CC[C@]12C.O=C1/C(=C/c2ccncc2)CCc2ccccc21
No. of tumors [43]: 6 | Tumors with CR [44]: 40% | No. of tumors [45]: 30 | Change of tumor area [4]: 2% | Tumors with CR [46]: 20% | Tumors with CR [47]: 20% | Tumors with CR [48]: 20%

CCC(=O)O[C@H]1CC[C@H]2[C@@H]3CCC4=CC(=O)CC[C@]4(C)[C@H]3CC[C@]12C [TESTOSTERONE PROPIONATE]
No. of tumors [49]: 12 | Tumors with CR [50]: 19% | Tumors with CR [51]: 25% | Change of tumor area [52]: 141% | Tumors with CR [53]: 36% | Tumors with CR [54]: 19% | No. of tumors [55]: 36

CCC1(c2ccc(N)cc2)CCC(=O)NC1=O (configuration not stated)
Plasma-E2 concentration [18]: 843 pg/mL and 500 pg/mL | Plasma-E2 concentration [56]: 164 pg/mL | Plasma-E2 concentration [23]: 272 pg/mL

CCC(=O)O[C@H]1CC[C@H]2[C@@H]3CCC4=CC(=O)CC[C@]4(C)[C@H]3CC[C@]12C.COc1cccc2c1CCC(Cc1ccncc1)C2=O
Change of tumor area [57]: 50% | No. of tumors [58]: 11 | Tumors with CR [59]: 12% | Tumors with CR [60]: 24% | No. of tumors [61]: 34 | Tumors with CR [62]: 29% | Tumors with CR [63]: 35%

— ChEMBL document CHEMBL1125863, “New aromatase inhibitors. Synthesis and biological activity of pyridyl-substituted tetralone derivatives” (J Med Chem, 1991)
